One substance from patent publication US20180271930A1, “METHOD FOR RAISING POULTRY” (priority 2015, published 2018) can be followed below.

Experiment [1] can be described thus: Examination 2-1: breeding performance at 21 and 28 days old after GSSG prestarter feed. In kind it is in vivo, broiler chicks. Particulars: 0.01% by mass GSSG feed for first 72 h, n = 6. As to the method: Newly hatched broiler chicks (Ross Breeders Ltd.) were fed with a feed composition for 3 days. The feed composition contained GSSG at a level of 0.01% by mass which was thought to be appropriate based on Examination 1. […] Two groups, which were a control group and a GSSG addition group (0.01% by mass), were set. In each group, 6 males and 6 females were tested. Chicks received at 0 day old were fed with a test feed composition (initial-phase feed composition) during 72 hours after the receipt. […] Their body weights, breast meat weights, leg meat weights, and liver weights were measured. As the initial-phase feed composition, the feed composition comprising 0.01% by mass of GSSG used in Examination 1 was used for the GSSG addition group, and the feed composition (ME3,100 kcal/kg, CP21) free of GSSG used in Examination 1 was used for the control group. […] An ammonium salt was used as oxidized glutathione (GSSG). The GSSG contained 95.6% by mass of oxidized glutathione, and the content of reduced glutathione mixed therein was 0.1% by mass or less.

Experiment [2] is described as follows: Examination 6: body weight at 21 days old after GSSG feed (0.01% or 0.05%) for 3 days. In kind it is in vivo, broiler chicks. The settings on record: n = 12. As to the method:
Newly hatched broiler chicks (Ross Breeders Ltd.) were fed with a feed composition containing GSSG at 0.01% by mass or 0.05% by mass for 3 days. […] Three groups, which were a control group, a GSSG addition group (0.01% by mass), and a GSSG addition group (0.05% by mass), were set. In each group, 6 males and 6 females were tested. Chicks received at 0 day old were fed with a test feed composition (initial-phase feed composition) during 72 hours after the receipt. […] Their body weights were measured. A feed composition used as an initial-phase feed composition, for which the level of GSSG was set to 0.01% by mass or […], is a composition prepared by adding GSSG at 0.01% by mass or 0.1% by mass to a composition (ME3,100 kcal/kg, CP21) containing corn, soybean meal, corn gluten meal, fat and oil, calcium carbonate (powder), tricalcium phosphate, dietary salt, DL-methionine, L-lysine chloride, choline chloride, and vitamins/minerals in accordance with the NRC requirements. The feed composition (ME3,100 kcal/kg, CP21) free of GSSG used in Examination 1 was used for the control group. […] An ammonium salt was used as GSSG. The GSSG contained 95.6% by mass of oxidized glutathione, and the content of reduced glutathione mixed therein was 0.1% by mass or less.

Experiment [3] in a line: Examination 1: body weight of initial-phase chicks fed additive-containing feed for 3 days. In kind it is in vivo, broiler chicks of the Chunky breed (Ross 308). The settings on record: n = 6. As to the method:
Newly hatched broiler chicks of the Chunky breed (Ross 308, Ross Breeders Ltd.) were tested. […] Blood and skeletal muscles were collected to observe gene expression levels of MyoD, myogenin, myostatin, and IGF-I (insulin-like growth factor-I). An ammonium salt was used as oxidized glutathione (GSSG). The GSSG contained 95.6% by mass of oxidized glutathione, and the content of reduced glutathione mixed therein was 0.1% by mass or less. […] The amount of GSSG used herein was determined in terms of the amount of free oxidized glutathione. In all the following Examinations, the amounts of GSSG are expressed in terms of the amount of free oxidized glutathione.

The test system of experiment [4] is Pax7. Put plainly: Examination 3: Pax7 expression in skeletal muscle cells in differentiation medium. In kind it is cell-based, broiler chicks (Ross 308). The settings on record: 100 μM GSSG in differentiation medium; 12 hours after start of culture; FIG. 2D, n=6. An excerpt: FIGS. 2A to 2D illustrate graphs showing the expression levels of genes related to skeletal muscle cell differentiation upon the addition of GSSG during the skeletal muscle cell differentiation period in Examination 3 (n=6). […] A relative value of the expression level of each factor is expressed as an average±standard deviation of values obtained by dividing the expression levels of each factor by the expression level of RPS9. Each different symbol denotes a significant difference in the […] multiple comparison test (P<0.05). Oxidized glutathione (GSSG) was added to a differentiation-promoting culture medium system of skeletal muscle cells collected from newly hatched broiler chicks (Ross 308, Ross Breeders Ltd.) (under culture conditions simulating the state of skeletal muscle cells of neonatal chicks), phosphorylation of signal factors was analyzed by Western blot, and the differentiation inhibition mechanism was investigated. Expression levels of MyoD, myostatin, IGF-I, and Pax7 as genes involved in myogenesis were determined. Pax7 is a muscle satellite cell marker. […] The expression level of Pax7 was determined by the method described in Examination 1 except that the primer set used herein was a primer set listed in the table below. […] The cells were recovered 0, 12, and 24 hours later, and the expression levels of genes involved in myogenesis were determined. […]

Take oxidized glutathione [GSSG]: the results for the Breast meat in experiment [1] (21 days old) and in experiment [1] (28 days old) were 118 ± 4 g and 186 ± 15 g, respectively. The Leg meat in experiment [1] (21 days old) was found to be 136 ± 6 g; in experiment [1] (28 days old) it was 206 ± 12 g. In addition, the Weight in experiment [1] (21 days old) was 933 ± 65 g; in experiment [1] (28 days old), 1500 ± 149 g. Moreover, the 21-day-old weight in experiment [2] (GSSG 0.01% by mass in feed for 3 days) was determined as 961 ± 84 g; in experiment [2] (GSSG 0.05% by mass in feed for 3 days) it was 986 ± 67 g. The “Weight at 3 days old” value came to 78.1 ± 4.0 g in experiment [3] (feed with 0.01% by mass GSSG for 3 days) and 72.8 ± 5.6 g in experiment [3] (feed with 0.1% by mass GSSG for 3 days). Also, in experiment [4], the “expression of Pax7 vs control group” value was “significantly increased”.
